In test [1] the test system is microaerophilic bacteria isolated from the oral cavity. The experiment in a line: Susceptibility (MIC), agar dilution, microaerophilic bacteria. Type of test: cell-based. As for the experimental part:
The investigations included more than hundred strains isolated from the oral cavity: : anaerobes, microaerophilic bacteria, aerobes, Streptococcus spp. and yeast like fungi. The microorganisms were isolated from saliva, mucosal membrane, gingival pockets and caries decay. The susceptibility (MIC) of bacteria and yeastlike fungi were determined by means of plate dilution technique in agar.
The investigated samples were dissolved in sterile distilled water (immediately before the experiment) to obtain the following concentrations: 3.5, 1.7, 0.8, 0.4 and 0.2 mg/ml and were added into appropriate agar. The plates were inoculated using a Steers multipoint inoculator. Inoculum contained 10^6 CFU/spot. […]
Anaerobes. The susceptibility of bacteria was determined by means of the agar dilution methods with Brucella agar supplemented with 5% defibrinated sheep's blood, menadione and hemin. […] The susceptibility of bacteria was determined by means of the agar dilution methods with Brucella agar supplemented with 5% sheep's blood. […] The susceptibility of bacteria was determined by means of the agar dilution methods with Mueller-Hinton agar supplemented with 5% sheep's blood. […] The susceptibility to investigated samples was determined by means of the plate dilution technique in Mueller-Hinton agar. […]
(In agar dilution, organisms are placed on agar that contains the substance at set levels.)

A short description of test [2]: Determination of the PF-value: Knoop micro hardness of tooth samples coated with product, then saliva and acetic acid (in-vitro). Also on record: species or system human. The source says: The capacity to protect teeth against caries can be measured with a technique well known in the art (U.S. Pat. No. 5,279,814). Demineralization with acid, decreases the hardness of the tooth surface. The hardness can be quantified indirectly by measuring the depth of penetration of a needle in the surface (measurement of micro hardness). With this procedure, so called “Knoop” method, the needle is penetrating the surface under the pressure of constant weight and leaves a mark on the surface that allows the calculation of the depth of penetration. The more the tooth is suffering from demineralization, the softer its surface will get and the larger the depth of penetration will be (Knoop F., Peters C. G., Emerson W. B., A Sensitive Pyramidal Diamond Tool for Identation Measurments, J. Res. Natn. Bur. Stand. 23, 39-61 (1939).
The procedure includes the determination of the hardness of a human tooth sample with the Knoop method. Subsequently, the tooth is treated with an experimental protecting product outside the oral cavity.
It is cleaned softly with a paper towel until the coating is invisible.
Subsequently the tooth sample is submerged in a batch of human saliva in order to simulate the conditions in the oral cavity. After removal from the saliva batch (after 30 min.) it is treated with acid over a constant time period of 30 min. at 37° C. The acid is washed away, the tooth is dried on air and the hardness is measured again. The change in hardness (delta P in μm) is obtained by comparing with the hardness of the tooth before treatment. This experiment is repeated on other tooth samples. The effect of acid on unprotected teeth is obtained by carrying out the same procedure but without the use of an experimental protecting product (delta Pa). The protecting capacity (“PF” protection factor) of an experimental protecting compound can be defined as: […]
The ability of a product to protect teeth (PF-value) is determined with the Knoop method. A tooth sample, size 3×3×3 mm is cut from a human tooth and embedded into polymerizing resin in such a way that the surface of the tooth sample appears on the surface of the (resin) cube after the resin has become solid. The surface of the tooth is mechanically polished with rotating silicon carbide abrasive paper (Struers P1200-P2400-P4000) and the micro hardness of the enamel is determined with a Knoop diamant needle (Leitz-Wetzlar;
microdurometer “Durimet”; weight 50 gr; penetration-time: 30 seconds (Collys et al., J. Dent. Res. 1990; 69: 458-462)).
The penetration leaves a mark on the tooth surface, which is related to the depth of penetration (μm) and which can be analyzed under the microscope. […] The determination of the depth of penetration is repeated six times on each of the tooth samples and the average value is calculated. In order to determine the effect of acid on the hardness of the surface, use is made of an acetic acid buffer from Merck (pH 5; 0.1N). One drop of acid is positioned on the enamel for a period of 30 minutes at 37° C. The sample is cleaned with demineralized water and dried. The hardness is measured again according to the method of Knoop. This procedure is repeated 4 times, which means that the sample has been subjected to acid for a total period of two hours.
A graph (Y: penetration depth μm; X: 5 treatment stages) can be made on the basis of 5 average values (each of them based on six measurement), one obtained before treatment with acid, and the other 4 obtained after each of the 4 treatment-stages with acid. A logaritmic regressionline is calculated.

Turning to “Epsilon-polylysine (elys; e-polylysine) [Product 6]”, in test [1] (17 from 31 microaerophilic strains), the inhibitory concentration worked out at 0.2 mg/mL. Besides, the PF factor in test [2] (3.6% product/water w/w, with CaCl2.2H2O and KH2PO4) is on record as 70. The substance “casein phosphopeptide epsilon-polylysine copolymer [(CPP x elys)n]” yielded a PF factor in test [2] (7.8% product/water w/w) of 94. Take “bisphosphonylated epsilon-polylysine [bisphosphonylated e-polylysine]”: the mic value in test [1] (12 strains from 31 microaerophilic strains) is 0.2 mg/mL. This substance returned a PF factor in test [2] (1.5% product/water w/w) of 99.

These data come from US20080226565A1, “Anticariogenic Proteins & Peptides & Saccharides” (priority 2004, published 2008).
